Format in all cases: in vivo, zebrafish (Danio rerio)
Experiment [1] has as its system zebrafish larvae. As to the kind of experiment: PTZ-induced seizure behaviour (latency and number of seizures) after 24 h compound pretreatment. The note with it: tripeptide 25, 10 and 5 μg/mL, 24 h pretreatment, then 15 mM PTZ, 10 min visual observation; vs PTZ group. The protocol:
(§1) For all compounds, zebrafish larvae at 6 days post-fertilization (dpf) were randomly placed into Petri dishes, each one containing 25 larvae. The larvae were incubated in the respective solutions and concentrations for 24h (as specified in Table 1) prior to seizure induction. The temperature and photoperiod conditions were consistent with those described for the adult zebrafish. The study groups consisted of the Control Group (CG), PTZ Group (PTZ), Treatment 1, Treatment 2, and Treatment 3. Treatments 1 to 3 employed the previously determined concentrations mentioned above.
Seizure induction followed the pretreatment of the compounds. Larvae with 7 dpf were carefully transferred to a 96-well plate filled with 100 μL of aquarium water, with one larva per well. Subsequently, 100 μL of 30 mM of the proconvulsant agent pentylenetetrazol (PTZ) (Sigma-Aldrich, St. Louis, MO, USA) was added to each well, resulting in a final concentration of 15 mM of PTZ. The larvae were exposed to PTZ for 20 minutes. The control group underwent the same procedure but in PTZ-free water.
The latency and number of seizures were monitored through visual observation, following the method described by Barbalho et al., 2016a. […] Larvae were evaluated for 10 minutes of PTZ exposure, and a complete seizure was considered when they reached stage 3.

Experiment [2] concerns il1b. As to the kind of experiment: RT-qPCR of il1b transcript in larval heads after PTZ-induced seizures. The note with it: tripeptide 24 h, then 15 mM PTZ 20 min; significant effects at 10 and 5 μg/mL; n = 5 pools of five heads; vs PTZ group. The protocol: as §1
(§2) Seizure induction followed the pretreatment of the compounds. […]
(§3) Immediately after PTZ exposure, fish were cryo-anesthetized and their heads were cut, collected, and then incubated in TRIzol® (Invitrogen, Carlsbad, CA, USA). […] The concentration and quality were determined using the Epoch™ spectrophotometer (BioTek, Winooski, VT, USA) and gel electrophoresis.
(§4) The synthesis of cDNA was carried out using the High-Capacity cDNA Reverse Transcription kit (Applied Biosystems™, Califórnia, USA) following the manufacturer’s instructions. Quantitative PCR (qPCR) was performed using the SYBR ® Green Master Mix reagent (Bio-Rad) using the ABI 7500 system (Applied Biosystems, Foster City, CA, USA). […] Data were evaluated using 7500 software v2.03 (Applied Biosystems). […]
A general note: Quantitative PCR measures a nucleic acid by following its amplification.

The test system of experiment [3] is casp9. Put plainly: RT-qPCR of casp9 transcript in larval heads after PTZ-induced seizures. Particulars: tripeptide 24 h, then 15 mM PTZ 20 min; significant effects at 10 and 5 μg/mL; n = 5 pools of five heads; vs PTZ group. The protocol: as §1, §2, §3, §4
The subject of experiment [4] is casp3a. Put plainly: RT-qPCR of casp3a transcript in larval heads after PTZ-induced seizures. Particulars: tripeptide 10 μg/mL 24 h, then 15 mM PTZ 20 min; no statistical difference detected; n = 5. The protocol:
as §1, §2, §3, §4

The subject of experiment [5] is baxa. Put plainly: RT-qPCR of baxa transcript in larval heads after PTZ-induced seizures. Particulars: tripeptide 10 μg/mL 24 h, then 15 mM PTZ 20 min; no statistical difference detected; n = 5. The protocol: as §1, §2, §3, §4
The test system of experiment [6] is bcl2a. Put plainly: RT-qPCR of bcl2a transcript in larval heads after PTZ-induced seizures. Particulars: tripeptide 10 μg/mL 24 h, then 15 mM PTZ 20 min; no statistical difference detected; n = 5. The protocol:
as §1, §2, §3, §4

In the case of Glu-Val-Trp [Tripeptide], in experiment [1], the number of seizures entry is recorded as “No statistical significance was found” and the “seizure latency (time to stage 3 seizure-like activity)” value is recorded as “No statistical significance was found”. The “il1b gene expression (RQ = 2-ΔΔCT)” value in experiment [2] is on record as “downregulation”. In addition, in experiment [3], the “casp9 gene expression (RQ = 2-ΔΔCT)” value is listed as “downregulation”. Besides, the “casp3a gene expression (RQ = 2-ΔΔCT)” value in experiment [4] is listed as “roughly equivalent to or slightly higher than those of the PTZ group”. In addition, in experiment [5], the “baxa gene expression (RQ = 2-ΔΔCT)” value is on record as “roughly equivalent to or slightly higher than those of the PTZ group”. Besides, the “bcl2a gene expression (RQ = 2-ΔΔCT)” value in experiment [6] is reported as “roughly equivalent to or slightly higher than those of the PTZ group”.

The values are drawn from doi:10.1101/2024.07.29.605666v2, “Effects of two different compounds on seizure suppression using the zebrafish PTZ-seizure model” (bioRxiv, 2024).
